Assay results from patent publication US20080146616A1, “Indoles Useful in the Treatment of Inflammation” (priority 2004, published 2008).

These molecules were tested against T1, human mPGES-1 (Homo sapiens, UniProt O14684) (assay: mPGES-1 inhibition assay (conversion of PGH2 to PGE2, HPLC analysis)). Settings: human mPGES-1 expressed in E. coli, membrane fraction; 25 min preincubation, PGH2 substrate 60 s, room temperature; read-out: concentration at which 50% inhibition of mPGES-1 was observed.
T1 construct: made in house; host or cells: E. coli (membrane fraction)
T1 sequence (O14684 1-152): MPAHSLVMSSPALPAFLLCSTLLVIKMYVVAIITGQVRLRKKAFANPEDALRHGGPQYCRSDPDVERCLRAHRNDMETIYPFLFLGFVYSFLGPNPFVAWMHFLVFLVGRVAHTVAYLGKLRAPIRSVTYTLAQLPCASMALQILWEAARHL
Type: biochemical
Procedure: In the assay human in PGES-1 catalyses the reaction where the substrate PGH2 is converted to PGE2. mPGES-1 is expressed in E. Coli and the membrane fraction is dissolved in 20mM NaPi-buffer pH 8.0 and stored at −80° C. In the assay human mPGES-1 is dissolved in 0.1 M KPi-buffer pH 7.35 with 2.5 mM glutathione. The stop solution consists of H2O/MeCN (7/3), containing FeCl2 (25 mM) and HCl (0.15 M). The assay is performed at room temperature in 96-well plates. Analysis of the amount of PGE2 is performed with reversed phase HPLC (Waters 2795 equipped with a 3.9×150 mm C18 column). The mobile phase consists of H2O/MeCN (7/3), containing TFA (0.056%), and absorbance is measured at […] with a Waters 2487 UV-detector.
The following is added chronologically to each well: • 1. 100 μL human mPGES-1 in KPi-buffer with glutathione. Total protein concentration: 0.02 mg/mL. • 2. […] inhibitor in DMSO. Incubation of the plate at room temperature for 25 minutes. • 3. 4 μL of a […] PGH2 solution. Incubation of the plate at room temperature for 60 seconds. • 4. 100 μL stop solution. • 180 μL per sample is analyzed with HPLC.

Structure (SMILES) | IC50 [nM]
CC(C)Oc1ccc(-c2c(C(=O)O)n(-c3ccc(N(C)C)cc3)c3ccc(-c4ccc(C(C)(C)C)cc4)cc23)cc1 [Example 5, 5-(4-tert-Butylphenyl)-1-(4-(dimethylamino)phenyl)-3-(4-isopropoxyphenyl)indole-2-carboxylic acid] | 210
CC(C)Nc1ccc(-n2c(C(=O)O)c(-c3ccc(OC(C)C)cc3)c3cc(-c4ccc(C(C)(C)C)cc4)ccc32)cc1 [Example 6, 5-(4-tert-Butylphenyl)-3-(4-isopropoxyphenyl)-1-(4-(isopropylamino)-phenyl)indole-2-carboxylic acid] | 70
CC(C)Oc1ccc(-n2c(C(=O)O)c(-c3cccnc3)c3cc(-c4ccc(C(F)(F)F)cc4)ccc32)cn1 [Example 11, 1-(6-Isopropoxypyrid-3-yl)-3-(pyrid-3-yl)-5-(4-(trifluoromethyl)phenyl)-indole-2-carboxylic acid] | 1800

Further lines, results first:

IC50 [nM] | Structure (SMILES)
350 | CC(C)Oc1ccc(-c2c(C(=O)O)n(-c3cccc(OC(C)C)c3)c3ccc(-c4ccc(C(C)(C)C)cc4)cc23)cc1 [Example 2, 5-(4-tert-Butylphenyl)-1-(3-isopropoxyphenyl)-3-(4-isopropoxyphenyl)-indole-2-carboxylic acid]
950 | CC(C)Oc1ccc(-c2c(C(=O)O)n(-c3cccnc3)c3ccc(-c4ccc(C(C)(C)C)cc4)cc23)cc1 [Example 13, 5-(4-tert-Butylphenyl)-3-(4-isopropoxyphenyl)-1-pyrid-3-yl-1H-indole-2-carboxylic acid]
